# Laboratory results from US20050014849A1, “Antifungal phenylethylene” (priority 2001, published 2005).
# Legend:
# C. utilis ATCC 9226 = assay: Broth macrodilution MIC/MFC; assay type: cell-based, Candida utilis
# Method: (§1) TMPN was screened against yeasts by the broth macrodilution assay according to the NCCLS [7]. Yeasts were suspended and diluted as recommended to yield final inocula ranging from 0.5-2.5×10^3 cfu/ml. Tests were performed in sterile 12 by 75 mm plastic tubes containing two-fold dilutions of TMPN in 0.165 M morpholinepropanesulfonic acid buffered RPMI 1640 medium (pH 7.0). One tube was again left drug free (but contained an equivalent volume of DMSO) for a turbidity control. Tubes were incubated without agitation at the appropriate temperature (see Fungal Strains section above). MICs were determined after 72 h for Cryptococcus and after 48 h for other yeast genera. The MIC was defined as the lowest concentration of TMPN that inhibited all visible growth of the test organism (optically clear).
# (§2) Minimum fungicidal concentrations (MFCs) were determined by subculturing 0.1 ml from each tube with no visible growth in the MIC broth macrodilution series onto the appropriate drug-free plates (see Fungal Strains section above).
# C. utilis ATCC 22023 = assay: Broth macrodilution MIC/MFC; assay type: cell-based, Candida utilis
# Method: as §1, §2
# C. krusei (10) = assay: Broth macrodilution MIC/MFC; assay type: cell-based, Candida krusei
# Method: as §1, §2
# [1] = test system: Amphotericin B-resistant C. lusitaniae ATCC 42720; assay: Broth macrodilution MIC/MFC; assay type: cell-based, Candida lusitaniae
# Method: as §1, §2
# C. laurentii ATCC 66036 = assay: Broth macrodilution MIC/MFC; assay type: cell-based, Cryptococcus laurentii
# Method: as §1, §2
# C. laurentii ATCC 34142 = assay: Broth macrodilution MIC/MFC; assay type: cell-based, Cryptococcus laurentii
# Method: as §1, §2
# C. rugosa (7) = assay: Broth macrodilution MIC/MFC; assay type: cell-based, Candida rugosa
# Method: as §1, §2
# C. albicans (ATCC 90028) = assay: Frequency of occurrence of spontaneous mutants; assay type: cell-based, Candida albicans; details: four times the broth macrodilution MIC
# Method: Determination of the frequency of occurrence of spontaneous mutants was performed as previously described. Overnight cultures of C neoformans (ATCC 90112), C. albicans (ATCC 90028) and Trichosporon inkin (ATCC 18020) were diluted to an OD530 nm=0.3. 0.1 ml of each preparation was spread onto SDA plates containing four or eight times the broth macrodilution MIC of TMPN. The starting inoculum for each organism was also diluted and plated onto drug-free SDA plates for determination of cfu/ml. After a 48 h incubation at the appropriate temperature (see Fungal Strains section above), the number of colonies on drug-supplemented SDA was counted. The frequency of occurrence of spontaneous mutants was calculated by dividing the number of colonies on drug-containing plates by the number of colonies in the inoculum. When no colonies were visualized on drug-containing plates, the calculation was (<) 1 colony divided by the number of colonies in the inoculum.
# Candida albicans (7) = assay: Broth macrodilution MIC/MFC; assay type: cell-based
# Method: as §1, §2
# K. apiculate ATCC 9774 = assay: Broth macrodilution MIC/MFC; assay type: cell-based
# Method: as §1, §2
# [2] = test system: Kluyveromyces marxianus ATCC 365534; assay: Broth macrodilution MIC/MFC; assay type: cell-based
# Method: as §1, §2
# [3] = test system: Blastoschizomyces capitalus ATCC 10663; assay: Broth macrodilution MIC/MFC; assay type: cell-based
# Method: as §1, §2
# [4] = test system: Trichosporon cutaneum ATCC 28592; assay: Broth macrodilution MIC/MFC; assay type: cell-based
# Method: as §1, §2
# [5] = test system: Filobasidium uniguttulatum ATCC 24227; assay: Broth macrodilution MIC/MFC; assay type: cell-based
# Method: as §1, §2
# [6] = test system: Fluconazole-resistant Cryptococcus neoformans (4); assay: Broth macrodilution MIC/MFC; assay type: cell-based
# Method: as §1, §2
# [7] = test system: Rhodotorula mucilaginosa ATCC 9449; assay: Broth macrodilution MIC/MFC; assay type: cell-based
# Method: as §1, §2
# P388 leukemia = assay: Sulforhodamine B cancer cell growth inhibition; assay type: cell-based, murine; details: Mus musculus, 48 h, read-out: GI50 (inhibition of 50% of cell growth)
# Method: An investigation TMPN's in vitro antineoplastic activity was also conducted. This investigation included an analysis of both cell growth, and of the effects of TMPN upon tubulin. Inhibition of cancer cell growth was assessed using the Sulforhodamine B assay as previously described. Briefly, cells in 5% fetal calf serum/RPMI-1640 were inoculated into 96 well plates, incubated 24 h and 10-fold dilutions of TMPN added. After a 48 h incubation, plates were fixed with trichloroacetic acid, washed, stained with Sulforhodamine B and read with an automated microtiter plate reader.
# C. albidus ATCC 66030 = assay: Broth macrodilution MIC/MFC; assay type: cell-based, Cryptococcus albidus
# Method: as §1, §2
# C. albidus ATCC 40666 = assay: Broth macrodilution MIC/MFC; assay type: cell-based, Cryptococcus albidus
# Method: as §1, §2
# C. albidus ATCC 34140 = assay: Broth macrodilution MIC/MFC; assay type: cell-based, Cryptococcus albidus
# Method: as §1, §2
# C. neoformans ATCC 66031 = assay: Broth macrodilution MIC/MFC; assay type: cell-based, Cryptococcus neoformans
# Method: as §1, §2
# C. neoformans (24) = assay: Broth macrodilution MIC/MFC; assay type: cell-based, Cryptococcus neoformans
# Method: as §1, §2
compound,measurement,setting,value
"COc1cc(C=C[N+](=O)[O-])cc(OC)c1OC [TMPN, 1-(3′,4′,5′-trimethoxyphenyl)-2-nitro-ethylene]",MFC Range,C. utilis ATCC 9226,8 µg/mL
same,MIC Range,C. utilis ATCC 9226,4 µg/mL
same,MFC Range,C. utilis ATCC 22023,8 µg/mL
same,MIC Range,C. utilis ATCC 22023,8 µg/mL
same,MFC 50% (MFC at which 50% of the strains are killed),C. krusei (10); C. krusei (10),32 µg/mL
same,MFC 90% (MFC at which 90% of the strains are killed),C. krusei (10); C. krusei (10),32 µg/mL
same,MFC Range,C. krusei (10); C. krusei (10),16 to 64 µg/mL
same,MIC Range,C. krusei (10); C. krusei (10),8 to 16 µg/mL
same,share of isolates with MFC/MIC ratio <2,C. krusei (10); C. krusei clinical isolates,70%
same,MIC50,"C. krusei (10); Pichia kudriavzevii, C. krusei (10), read-out: MIC 50% (MIC at which 50% of the strains are inhibited)",8 µg/mL
same,MIC90,"C. krusei (10); Pichia kudriavzevii, C. krusei (10), read-out: MIC 90% (MIC at which 90% of the strains are inhibited)",16 µg/mL
same,MFC Range,[1],16 µg/mL
same,MIC Range,[1],16 µg/mL
same,MFC Range,C. laurentii ATCC 66036,32 µg/mL
same,MIC Range,C. laurentii ATCC 66036,16 µg/mL
same,MFC Range,C. laurentii ATCC 34142,32 µg/mL
same,MIC Range,C. laurentii ATCC 34142,32 µg/mL
same,MIC Range,C. rugosa (7),1 to 64 µg/mL
same,frequency of occurrence of single-step resistant mutants,C. albicans (ATCC 90028),≤ 10^−6
same,share of isolates with MFC/MIC ratio <2,Candida albicans (7); C. albicans clinical isolates,71%
same,MIC Range,Candida albicans (7); Candida albicans (7),4 to 32 µg/mL
same,share of isolates with MFC/MIC ratio ≦2,Candida albicans (7); Candida albicans clinical isolates,71%
same,MFC Range,K. apiculate ATCC 9774,2 µg/mL
same,MIC Range,K. apiculate ATCC 9774,1 µg/mL
same,MFC Range,[2],4 µg/mL
same,MIC Range,[2],4 µg/mL
same,MFC Range,[3],32 µg/mL
same,MIC Range,[3],8 µg/mL
same,MFC Range,[4],8 µg/mL
same,MIC Range,[4],4 µg/mL
same,MFC Range,[5],2 µg/mL
same,MIC Range,[5],0.5 µg/mL
same,MFC Range,[6],4 to 16 µg/mL
same,MIC Range,[6],4 to 8 µg/mL
same,MFC Range,[7],8 µg/mL
same,MIC Range,[7],4 µg/mL
same,GI50,P388 leukemia,4.15 µg/mL
same,MFC Range,C. albidus ATCC 66030,16 µg/mL
same,MIC Range,C. albidus ATCC 66030,8 µg/mL
same,MFC Range,C. albidus ATCC 40666,32 µg/mL
same,MIC Range,C. albidus ATCC 40666,8 µg/mL
same,MFC Range,C. albidus ATCC 34140,32 µg/mL
same,MIC Range,C. albidus ATCC 34140,32 µg/mL
same,MFC Range,C. neoformans ATCC 66031,4 µg/mL
same,MIC Range,C. neoformans ATCC 66031,2 µg/mL
same,MFC 50% (MFC at which 50% of the strains are killed),C. neoformans (24); C. neoformans (24),8 µg/mL
same,MFC 90% (MFC at which 90% of the strains are killed),C. neoformans (24); C. neoformans (24),16 µg/mL
same,MFC Range,C. neoformans (24); C. neoformans (24),4 to 32 µg/mL
same,MIC Range,C. neoformans (24); C. neoformans (24),2 to 16 µg/mL
same,share of isolates with MFC/MIC ratio <2,C. neoformans (24); C. neoformans clinical isolates,96%
same,share of isolates with MFC/MIC ratio ≦2,C. neoformans (24); Cryptococcus neoformans clinical isolates,96%
same,MIC50,"C. neoformans (24); Cryptococcus neoformans, C. neoformans (24), read-out: MIC 50% (MIC at which 50% of the strains are inhibited)",4 µg/mL
same,MIC90,"C. neoformans (24); Cryptococcus neoformans, C. neoformans (24), read-out: MIC 90% (MIC at which 90% of the strains are inhibited)",8 µg/mL
